90 molecules from the Kinase Knowledgebase extract (Sharma et al. 2016) can be followed below.

In the first assay the target is CDK2 (UniProt P24941). Nature of the assay: Enzyme Assay.
Turning to `O=C(NC1CCC(C(=O)O)CC1)c1n[nH]cc1NC(=O)c1c(F)cccc1F` (stereo not given), the half-inhibitory concentration (IC50) is under 20 µM.
In turn, `O=C(CS(=O)(=O)c1ccccc1)Nc1c[nH]nc1C(=O)Nc1ccc(F)cc1` yielded an IC50 of under 20 µM.

For the next assay, the target named is CDK2 (UniProt P24941). The assay can be described thus: Enzyme Assay. The source holds these as a separate data set.
Turning to `CC(NC(=O)c1n[nH]cc1NC(=O)c1c(F)cccc1F)c1ccccc1` (stereo not given), the IC50 was under 20 µM.
Take `O=C(N[C@H]1CC[C@H](NC2CCOCC2)CC1)c1n[nH]cc1NC(=O)c1c(F)cccc1F`: the IC50 is under 20 µM.
The same measure, in the same setting: to `O=C(Nc1c[nH]nc1C(=O)NC1CCNCC1)c1cc(F)cc(F)c1` belongs under 20 µM; to `N[C@H]1CC[C@H](NC(=O)c2n[nH]cc2NC(=O)c2c(F)cccc2F)CC1`, under 20 µM; to `COc1cccc(F)c1C(=O)Nc1c[nH]nc1C(=O)NC1CCC(C(C)(C)C)CC1` (stereo not given), under 20 µM.
On the same count and under the same terms, the result for `COc1cccc(F)c1C(=O)Nc1c[nH]nc1C(=O)NC1CCN(C)CC1` reads under 20 µM.
Still for that read-out and setting: to `O=C(NC1CCN(c2cccc(Cl)n2)CC1)c1n[nH]cc1NC(=O)c1c(F)cccc1F` belongs under 20 µM; to `COc1cccc(F)c1C(=O)Nc1c[nH]nc1C(=O)N[C@H]1CC[C@H](O)CC1`, under 20 µM.
For the molecule `O=C(N[C@H]1CC[C@H](O)CC1)c1n[nH]cc1NC(=O)c1c(F)cccc1F`, the concentration for half-maximal inhibition (IC50) is under 20 µM.
On to `COCCN1CCC(NC(=O)c2n[nH]cc2NC(=O)c2c(F)cccc2F)CC1`, for which the IC50 was under 20 µM.
The same measure, in the same setting: the result for `COCCN1CCC(NC(=O)c2n[nH]cc2NC(=O)c2c(Cl)cccc2Cl)CC1` reads under 20 µM.
The same measure, in the same setting: to `O=C(Nc1c[nH]nc1C(=O)NC1CCNCC1)c1ccccc1OCc1ccccc1` belongs under 20 µM; to `CN1CCC(NC(=O)c2n[nH]cc2NC(=O)c2cccc3c2OCCO3)CC1`, under 20 µM; to `O=C(Nc1c[nH]nc1C(=O)NC1CCNCC1)c1ccccc1OC(F)(F)F`, under 20 µM.
Same read-out and setting: to `Cc1ccc(C(=O)Nc2c[nH]nc2C(=O)NC2CCN(C)CC2)cc1` belongs under 20 µM.
On to `COc1cccc(F)c1C(=O)Nc1c[nH]nc1C(=O)NC1CCN(C(=O)OC(C)(C)C)CC1`, for which the half-maximal inhibitory concentration (IC50) is under 20 µM.
Still for that read-out and setting: to `CN1CCN([C@H]2CC[C@@H](NC(=O)c3n[nH]cc3NC(=O)c3c(F)cccc3F)CC2)CC1` belongs under 20 µM; to `O=C(NC[C@H]1CC[C@H](NC(=O)c2n[nH]cc2NC(=O)c2c(F)cccc2F)CC1)OCc1ccccc1`, under 20 µM; to `O=C(NC1CCN(CC2CC2)CC1)c1n[nH]cc1NC(=O)c1c(F)cccc1F`, under 20 µM.
The same measure, in the same setting: to `O=C(Nc1c[nH]nc1C(=O)NC1CCNCC1)c1ccc(OC(F)F)cc1` belongs under 20 µM.
With `CN1CCC(NC(=O)c2n[nH]cc2NC(=O)c2cccc(Cl)c2Cl)CC1`, the IC50 is under 20 µM.
Molecule `CC(C)(C)N1CCC(NC(=O)c2n[nH]cc2NC(=O)c2c(F)cccc2F)CC1` gave an IC50 of under 20 µM.
The molecule `CN1CCN([C@H]2CC[C@H](NC(=O)c3n[nH]cc3NC(=O)c3c(F)cccc3F)CC2)CC1` registered a 50% inhibitory concentration (IC50) of under 20 µM.
Same read-out and setting: to `O=C(Nc1c[nH]nc1C(=O)NC1CCNCC1)c1ccccc1OC(F)F` belongs under 20 µM.
On the same count and under the same terms, the result for `O=C(NCc1ccccc1)Nc1c[nH]nc1C(=O)N[C@H]1CC[C@H](O)CC1` reads under 750 µM; that for `CN1CCN(c2cc(F)cc(C(=O)Nc3c[nH]nc3C(=O)NC3CCCCC3)c2)CC1`, under 20 µM; that for `CN1CCC(NC(=O)c2n[nH]cc2NC(=O)c2c(Cl)cccc2Cl)CC1`, under 20 µM.
Same read-out and setting: to `O=C1CC[C@H](NC(=O)c2n[nH]cc2NC(=O)c2c(F)cccc2F)CN1` belongs under 20 µM; to `CS(=O)(=O)N1CCC(NC(=O)c2n[nH]cc2NC(=O)c2c(F)cccc2F)CC1`, under 20 µM.
In turn, `O=C(Nc1ccccc1)Nc1c[nH]nc1C(=O)N[C@H]1CC[C@H](O)CC1` registered an IC50 of under 20 µM.
Still for that read-out and setting: the result for `CC(C)(C)C1CCC(NC(=O)c2n[nH]cc2NC(=O)c2ccc(CN3CCCC3)o2)CC1` (stereo not given) reads under 20 µM.
Same read-out and setting: the result for `O=C(NC1CCC(N2CCSCC2)CC1)c1n[nH]cc1NC(=O)c1c(F)cccc1F` (stereo not given) reads under 20 µM; that for `O=C(NCC1CCNCC1)c1n[nH]cc1NC(=O)c1c(F)cccc1F`, under 20 µM; that for `O=C(Nc1c[nH]nc1C(=O)NCC1CC1)c1ccc(N2CCOCC2)cc1Cl`, under 20 µM.
The same measure, in the same setting: the result for `NC[C@H]1CC[C@H](NC(=O)c2n[nH]cc2NC(=O)c2c(F)cccc2F)CC1` reads under 20 µM; that for `O=C(N[C@H]1CC[C@@H](NC2CCOCC2)CC1)c1n[nH]cc1NC(=O)c1c(F)cccc1F`, under 20 µM; that for `O=C(N[C@H]1CC[C@H](N2CCS(=O)(=O)CC2)CC1)c1n[nH]cc1NC(=O)c1c(F)cccc1F`, under 20 µM.
As to `CC(C)(C)NC(=O)Nc1c[nH]nc1C(=O)NCC1CC1`, the IC50 is under 20 µM.
`O=C(NC1CCN(CC2CCOC2)CC1)c1n[nH]cc1NC(=O)c1c(F)cccc1F` (stereo not given) had a half-inhibitory concentration (IC50) of under 20 µM.
The same measure, in the same setting: to `COc1cscc1C(=O)Nc1c[nH]nc1C(=O)N[C@H]1CC[C@H](O)CC1` belongs under 20 µM; to `O=C(NC1CCN(c2ncccn2)CC1)c1n[nH]cc1NC(=O)c1c(F)cccc1F`, under 20 µM; to `O=C(N[C@H]1CC[C@@H](N2CCOCC2)CC1)c1n[nH]cc1NC(=O)c1c(F)cccc1F`, under 20 µM.
The same measure, in the same setting: to `O=C(Nc1c[nH]nc1C(=O)NC1CCNCC1)c1cc(-c2ccccc2)cs1` belongs under 20 µM.
On the same count and under the same terms, the result for `O=C(Nc1c[nH]nc1C(=O)N[C@H]1CC[C@H](O)CC1)Nc1c(F)cccc1F` reads under 20 µM.
Molecule `O=C(Nc1c[nH]nc1C(=O)NC1CCNCC1)c1ccccc1` yielded an IC50 of under 750 µM.
The same measure, in the same setting: the result for `CC(C)N1CCC(NC(=O)c2n[nH]cc2NC(=O)c2c(F)cccc2F)CC1` reads under 20 µM; that for `O=C(Nc1c[nH]nc1C(=O)N[C@H]1CC[C@H](O)CC1)c1cccc2c1OCCO2`, under 20 µM; that for `CN1CCC(NC(=O)c2n[nH]cc2NC(=O)c2cc(Cl)ccc2Cl)CC1`, under 20 µM.
Same read-out and setting: the result for `COc1cccc(F)c1C(=O)Nc1c[nH]nc1C(=O)NC1CCNCC1` reads under 20 µM; that for `O=C(N[C@H]1CC[C@H](N2CCOCC2)CC1)c1n[nH]cc1NC(=O)c1c(F)cccc1F`, under 20 µM; that for `O=C(NC1CCNCC1)c1n[nH]cc1NC(=O)c1c(Cl)cncc1Cl`, under 20 µM.
In turn, `O=C(NCc1cccnc1)c1n[nH]cc1NC(=O)c1c(F)cccc1F` returned an IC50 of under 20 µM.
The molecule `CCOc1ccccc1C(=O)Nc1c[nH]nc1C(=O)NC1CCNCC1` gave an IC50 of under 20 µM.
Same read-out and setting: to `CC(C)(C)OC(=O)N1CCC(NC(=O)c2n[nH]cc2NC(=O)c2c(F)cc(F)cc2F)CC1` belongs under 20 µM; to `O=C(NCc1ccco1)c1n[nH]cc1NC(=O)c1c(F)cccc1F`, under 20 µM; to `O=C(NC1CCC(CO)CC1)c1n[nH]cc1NC(=O)c1c(F)cccc1F` (stereo not given), under 20 µM.
The same measure, in the same setting: to `O=C(N[C@H]1CCCNC1)c1n[nH]cc1NC(=O)c1c(F)cccc1F` belongs under 20 µM.
On the same count and under the same terms, the result for `COc1ccccc1C(=O)Nc1c[nH]nc1C(=O)N[C@H]1CC[C@H](O)CC1` reads under 20 µM; that for `COc1ccccc1C(=O)Nc1c[nH]nc1C(=O)NC1CCNCC1`, under 20 µM.
As to `O=C(Nc1c[nH]nc1C(=O)NC1CCNCC1)c1ccccc1Br`, the half-inhibitory concentration (IC50) was under 20 µM.
`O=C(N[C@H]1CCCNC1)c1n[nH]cc1NC(=O)c1c(Cl)cccc1Cl` had an IC50 of under 20 µM.
The same measure, in the same setting: the result for `O=C(Nc1c[nH]nc1C(=O)NC1CCNCC1)c1ccccc1N1CCOCC1` reads under 20 µM; that for `CC(C)(C)C1CCC(NC(=O)c2n[nH]cc2NC(=O)c2ccc(F)cc2)CC1` (stereo not given), under 750 µM; that for `O=C(NC1CCNCC1)c1n[nH]cc1NC(=O)c1c(F)cc(F)cc1F`, under 20 µM.
The same measure, in the same setting: the result for `O=C(N[C@@H]1CCNC1)c1n[nH]cc1NC(=O)c1c(F)cccc1F` reads under 20 µM.
Turning to `O=C(NC1CCN(CC(F)(F)F)CC1)c1n[nH]cc1NC(=O)c1c(F)cccc1F`, the IC50 is under 20 µM.
For `O=C(NC1CCN(c2ccccn2)CC1)c1n[nH]cc1NC(=O)c1c(F)cccc1F`, the IC50 is under 20 µM.
On the same count and under the same terms, to `CC(C)(C)C1CCC(NC(=O)c2n[nH]cc2NC(=O)c2ccc(Cl)cc2)CC1` (stereo not given) belongs under 750 µM; to `CC(C)(C)OC(=O)N1CCC(NC(=O)c2n[nH]cc2NC(=O)c2ccc(F)cc2)CC1`, under 20 µM; to `CC(C)(C)C1CCC(NC(=O)c2n[nH]cc2NC(=O)c2cc(F)cc(F)c2)CC1` (stereo not given), under 750 µM.
Molecule `CC(C)(C)C1CCC(NC(=O)c2n[nH]cc2NC(=O)c2ccc(CN3CCOCC3)o2)CC1` (stereo not given) displayed an IC50 of under 20 µM.
The molecule `CN(C)[C@H]1CC[C@H](NC(=O)c2n[nH]cc2NC(=O)c2c(F)cccc2F)CC1` had an IC50 of under 20 µM.
In turn, `CC(C)(C)C1CCC(NC(=O)c2n[nH]cc2NC(=O)c2ccc(OC(F)F)cc2)CC1` (stereo not given) displayed an IC50 of under 750 µM.
Same read-out and setting: to `CO[C@H]1CC[C@H](NC(=O)c2n[nH]cc2NC(=O)c2c(F)cccc2F)CC1` belongs under 20 µM.
For the molecule `CN1CCC(C(=O)Nc2c[nH]nc2C(=O)NCC2CC2)CC1`, the IC50 is under 20 µM.
The same measure, in the same setting: the result for `CN1CCC(NC(=O)c2n[nH]cc2NC(=O)c2c(F)cccc2Cl)CC1` reads under 20 µM.
Still for that read-out and setting: to `CN1CCC(N2CCC(NC(=O)c3n[nH]cc3NC(=O)c3c(F)cccc3F)CC2)CC1` belongs under 20 µM; to `CS(=O)(=O)NC[C@H]1CC[C@H](NC(=O)c2n[nH]cc2NC(=O)c2c(F)cccc2F)CC1`, under 20 µM; to `COc1ccc(F)cc1C(=O)Nc1c[nH]nc1C(=O)NC1CCN(C)CC1`, under 20 µM.
The same measure, in the same setting: to `CC(C)(C)CNC(=O)Nc1c[nH]nc1C(=O)N[C@H]1CC[C@H](O)CC1` belongs under 20 µM; to `O=C(N[C@H]1CC[C@H](O)CC1)c1n[nH]cc1NC(=O)N1CCOCC1`, under 750 µM.
In the case of `CO[C@H]1CC[C@H](NC(=O)c2n[nH]cc2NC(=O)c2c(Cl)cccc2Cl)CC1`, the IC50 was under 20 µM.
The molecule `CC(C)(C)OC(=O)N1CCC(NC(=O)c2n[nH]cc2NC(=O)c2ccccc2)CC1` came in with a concentration for half-maximal inhibition (IC50) of under 20 µM.
The same measure, in the same setting: the result for `O=C(N[C@H]1CC[C@H](O)CC1)c1n[nH]cc1NC(=O)c1c(F)cccc1Cl` reads under 20 µM; that for `C[N+]1([O-])CCC(NC(=O)c2n[nH]cc2NC(=O)c2c(F)cccc2F)CC1` (stereo not given), under 20 µM.
`O=C(NC1CCNCC1)c1n[nH]cc1NC(=O)c1c(F)cccc1Cl` yielded an IC50 of under 20 µM.
Still for that read-out and setting: to `CC1CCC(NC(=O)c2n[nH]cc2NC(=O)c2c(F)cccc2F)CC1` (stereo not given) belongs under 20 µM; to `O=C(Nc1c[nH]nc1C(=O)NC1CCNCC1)c1ccc(F)cc1`, under 750 µM.
